# Experimental data taken from patent publication US20250197428A1, “INHIBITORS OF KIF18A AND USES THEREOF” (ACCENT THERAPEUTICS, INC., priority 2022, published 2025).
# Tests used:
# OVCAR-3 cells = assay: In vitro anti-proliferative activity assay in cancer cell line OVCAR-3 (CellTiter-Glo, 4- or 7-day); type: cell-based; conditions: Homo sapiens, OVCAR-3, 96 h, 4-day assay; read-out: OVCAR-3 cellular antiproliferation assay IC50
# [1] = test system: human megakaryocyte (CFU-MK) progenitors from human bone marrow mononuclear cells; assay: Human megakaryocyte progenitor colony formation assay (CFU-MK); type: cell-based; conditions: 336 h, 14 days culture, adjusted for binding to assay buffer, read-out: Free-fraction adjusted CFU-MK IC50
# OVCAR-3 xenografts = assay: 28 day in vivo efficacy in OVCAR-3 xenografts; set-up: species or system female NOD SCID mice; conditions: day 28, 30 mg/kg once daily, oral
# Procedure: Experiments were performed in female NOD SCID mice (GenPharmatech Co.). Animals were allowed to acclimate for 7 days before the study. The general health of the animals were evaluated by a veterinarian, and complete health checks were performed prior to the study. General procedures for animal care and housing were in accordance with the standard, Commission on Life Sciences, National Research Council, Standard Operating Procedures (SOPs) of Pharmaron, Inc. The mice were kept in laminar flow rooms at constant temperature and humidity with 3-5 mice in each cage. Animals were housed in polycarbonate cages which had dimensions of 300×180×150 mm^3 and in an environmentally monitored, well-ventilated room maintained at a temperature of 23±3° C. and a relative humidity of 40%-70%. Fluorescent lighting provided illumination approximately 12 hours per day. Animals had free access to irradiation sterilized dry granule food during the entire study period except for time periods specified by the protocol, as well as sterile drinking water in a bottle that was available ad libitum during the quarantine and study periods.
# The OVCAR-3 (ATCC) tumor cell lines were maintained in vitro as a monolayer in RPMI 1640 medium supplemented with 20% heat inactivated FBS, at 37° C. in an atmosphere of 5% CO2 in air. The tumor cells were sub-cultured, not exceeding 4-5 passages, and cells growing in an exponential growth phase were harvested and counted for tumor inoculation. Each mouse was inoculated subcutaneously on the right flank with OVCAR-3 tumor cells (2×10^7) in 0.2 mL of RPMI-1640 with Matrigel (1:1) for model development.
# Treatment was started when the mean tumor size reached approximately 150-200 mm^3, at which time the mice were randomized into treatment groups such that the average starting tumor size is similar for each treatment group. Animals were then treated with vehicle or indicated mg/kg (10-100) of compound at a given frequency (e.g., BID, QD, 4 days on treatment followed by 3 days off treatment) by oral gavage at a final dosing volume of 10 mL/kg.
# The measurement of tumor size was conducted with a caliper and recorded twice per […] week. The tumor volume (TV) (mm^3) was estimated using the formula: TV=a×b^2/2, where “a” and “b” are long and short diameters of a tumor, respectively.
# The TVs were used for calculation of the tumor growth inhibition and tumor growth delay. For the tumor growth inhibition (TGI), the value using the formula: […]
# The “TVfinal” and “TVinitial” are the mean tumor volumes on the final day and initial day, respectively.
# All statistical tests was conducted on GraphPad, and the level of significance was set at 5% or P<0.05. The group means and standard deviations were calculated for all measurement parameters. Two-way RM ANOVA followed by Tukeys post hoc comparisons of the means was applied among groups.
# Additionally, after compound treatment, the animals were observed an additional 28 days without compound treatment.
# The initial treatment period with Example 1 was 28 days, after which overall efficacy and tolerability were evaluated based on tumor volume and body weight changes observed during the treatment period (FIG. 2a and FIG. 2b).
# The initial treatment period with Example 1 was 28 days, after which overall efficacy and tolerability were evaluated based on tumor volume and body weight changes observed during the treatment period (FIG. 3a and FIG. 3b).
structure (smiles),measurement,setting,value
"Cc1cc(NC(=O)c2ccc(NS(=O)(=O)CCO)cc2N2CC[C@@]3(C(F)F)C[C@H]3C2)nc(N2CCC(F)(F)CC2)n1 (single isomer, unassigned) [Example 29b]",IC50,OVCAR-3 cells,< 100 nM
same,IC50,[1],110 nM
same,% T/C,OVCAR-3 xenografts,1%
same,% TGI,OVCAR-3 xenografts,99%
